Test results taken from patent publication US20250066310A1, “MULTI-SUBSTITUTED URACIL DERIVATIVE AND PREPARATION METHOD THEREFOR AND APPLICATION THEREOF” (HANGZHOU ADAMERCK PHARMLABS INC., priority 2021, published 2025).
Marks after values point to notes of the source that are not given here.

Key:
[1] = tested on: rats with autologous thrombus and thrombin-induced cerebral ischemic injury; experiment: Ischemic brain injury induced by autologous thrombus and thrombin in rats (i.v., alone or with urokinase); format: in vivo, SD rats; settings: n = 10
Method: Experimental Methods: A model of cerebral ischemic injury in SD rats was prepared by embolizing the middle cerebral artery of rats with autologous thrombus and thrombin via the external carotid artery to the internal carotid artery and the rats were randomly divided into 5 groups according to behavioral scores, a sham group (only the external carotid artery was isolated); a model-control group (saline was given to both groups in equal volume); urokinase (5000 U/kg) group; compound 1-1 ([…]) group; with 20 animals in each group (10 for detecting the rate of cerebral infarction, and the other 10 for pathological testing). Each group was administered slowly in the tail vein (1 ml per minute) 2 h after modeling, and the decrease in blood flow was monitored after thrombin injection and 120 min after administration. Neurobehavioral scoring was performed on the rats after 24 h to determine the neurological function of the rats; 2,3,5-triphenyltetrazolium chloride (TTC) staining was used to determine the rate of cerebral infarction and cerebral water content, and hematoxylin-eosin (HE) staining was used to observe the pathological damage of the brain in rats administered with the drug 2 h after cerebral ischemia.

[2] = tested on: ICR mice; experiment: Effect on in vivo bleeding time in mice (tail cut); settings: 100 mg/kg i.g. once daily for 4 days
Method: A normal control group (blank), positive control group (clopidogrel) and experimental groups were set up with 10 ICR mice (male, weighed about 25 g) in each group. Animals in each group were administered the corresponding drug solution by oral gavage (i.g.) at 0.1 ml/10 g body weight, and the blank control group was given distilled water, once daily for 4 days. On the 4th day, 1 h after the administration of the drug, the animals were anesthetized by intraperitoneal injection of sodium barbiturate at a dose of about 50 mg/kg, and 20 min later, the tails of the mice were cut at a distance of 3 mm from the tip of the tail, and at regular intervals, absorbent paper was used to dip the blood at the severed tails until no blood exuded, which was recorded as the bleeding time, and the results of the experiment were shown in Table 2.
Calculation equation for prolongation of bleeding time: […]

[3] = tested on: rats with focal permanent cerebral ischemia (MCAO); experiment: Focal permanent cerebral ischemic injury (MCAO), administration from 3 h post-ischemia; format: in vivo, SD rats; settings: for Number of survivors after 15 days animal: 15 enrolled; for Mortality (%): 15-day; for Neurological function score on day 15: Bederson's method; for Weight on day 1 / Weight on day 5 / Weight on day 15: mean body weight
[4] = tested on: rats with focal cerebral ischemia (MCAO)/reperfusion; experiment: Prophylactic administration, cerebral ischemia-reperfusion injury (MCAO/R) in rats; format: in vivo; settings: Mean ± SD, n = 8; for Cerebral infarction rate (%): 3 days before MCAO/R, 24 h after reperfusion; for behavioral score / cerebral water content (%): MCAO/R
Method: Experimental methods: SD rats were randomly divided into 6 groups, set as sham group, model control group, positive control drug ozagrel (6 mg/kg) group, and test drug compound 1-1 high (9 mg/kg), medium (3 mg/kg), and low (1 mg/kg) dose group. The administered groups were preadministered by tail vein injection, and the sham and model control groups were given an equal volume of saline, once a day for 3 consecutive days. Ten minutes after the last administration, the rat MCAO/R model was established, and reperfusion was performed 2 h after ischemia. 24 h after MCAO reperfusion, neurobehavioral scores were performed to determine the neurological function of rats; 2,3,5-triphenyltetrazolium chloride (TTC) staining method was used to determine the rate of cerebral infarction and cerebral water content in rats.

[5] = tested on: rats with myocardial ischemia-reperfusion injury; experiment: Myocardial ischemia-reperfusion injury caused by coronary artery ligation in rats; format: in vivo; settings: x ± s, n = 8; for Pathological Score: myocardium
Method: Experimental Methods: A model of myocardial ischemia/reperfusion (MI/R) injury caused by coronary artery ligation was established in rats, and animals were grouped into high-dose (20 mg/kg), medium-dose (10 mg/kg), low-dose (5 mg/kg) of the test drug, clopidogrel (7.5 mg/kg), sham, and model groups. Equal volume of 0.5% CMC-Na was administered at 0.5 ml/100 g body weight in both sham and model groups. The drug was administered by gavage (i.g.) once a day for 5 consecutive days. Modeling was performed 30 min after the last administration, and after modeling, 8 successfully modeled rats were selected from each group for subsequent experiments. The sham group was placed a wire under the left anterior descending branch of the coronary artery according to the model preparation method without ligation, and the other groups were modeled according to the model preparation method. The effects of the test drugs on the cardiac infarction rate and the biochemical indexes of creatine kinase (CK), lactate dehydrogenase (LDH), malondialdehyde (MDA), and superoxide dismutase (SOD) in plasma were detected, and TTC staining of the heart was performed to detect the effects of the test drugs on the area of myocardial infarction in MI/R rats.

[6] = middle and high dose groups compared with the model group

## CCOC(=O)CCNC(=O)CCNc1cc(=O)n(C)c(=O)n1C [Compound 1-1]
[1]; 9 mg/kg i.v., TTC staining, mean ± S.D.
  Cerebral infarction rate: 14.99 ± 10.91
[1]; 9 mg/kg i.v., after 24 h, Mean ± SD
  behavioral score: 1.70 ± 0.82
[1]; 9 mg/kg i.v., mean ± S.D.
  cerebral water content (%): 80.32 ± 0.97 %
[1]; cerebral blood flow, 9 mg/kg i.v. 2 h after modeling, Mean ± SD
  Percentage decrease two hours after administration (%): 29.24 ± 2.67 %
[1]; cerebral blood flow, before administration, 9 mg/kg group, Mean ± SD
  Percentage decrease after thrombin injection (%): 39.18 ± 4.75%
[1]; cerebral ischemic areas, 9 mg/kg i.v., mean ± SD
  Pathology Score: 2.20 ± 1.01
[2]
  Bleeding time prolongation (%): −8.89%
[3]; 10 mg/kg by gavage once a day
  Number of survivors after 15 days animal: 8
[3]; 20 mg/kg by gavage once a day
  Number of survivors after 15 days animal: 11
[3]; 40 mg/kg by gavage once a day
  Number of survivors after 15 days animal: 10
[3]; 10 mg/kg by gavage
  Mortality (%): 46.67%
[3]; 20 mg/kg by gavage
  Mortality (%): 26.67%
[3]; 40 mg/kg by gavage
  Mortality (%): 33.33%
[3]; 10 mg/kg
  Neurological function score on day 15: 0.88
  Weight on day 1: 273.73 g
  Weight on day 5: 240.73 g
  Weight on day 15: 281.38 g
[3]; 20 mg/kg
  Neurological function score on day 15: 0.75
  Weight on day 1: 281.93 g
  Weight on day 5: 253.67 g
  Weight on day 15: 281.10 g
[3]; 40 mg/kg
  Neurological function score on day 15: 0.5
  Weight on day 1: 274.93 g
  Weight on day 5: 288.25 g
  Weight on day 15: 316.80 g
[3]; [6]
  infarction rate (TTC staining): significantly reduced
  water content: significantly reduced
[4]; 1 mg/kg tail vein
  Cerebral infarction rate (%): 25.20 ± 9.71%
  behavioral score: 2.63 ± 0.74
  cerebral water content (%): 81.81 ± 0.78%
[4]; 3 mg/kg tail vein
  Cerebral infarction rate (%): 22.74 ± 9.12%
  behavioral score: 2.00 ± 0.76
  cerebral water content (%): 81.57 ± 0.87%
[4]; 9 mg/kg tail vein
  Cerebral infarction rate (%): 17.22 ± 9.35 %
  behavioral score: 1.50 ± 0.53
  cerebral water content (%): 80.94 ± 0.92 %
[5]; 5 mg/kg i.g. once a day for 5 days
  Cardiac infarction rate (%): 12.12 ± 4.45 %
[5]; 10 mg/kg i.g. once a day for 5 days
  Cardiac infarction rate (%): 10.99 ± 2.39 %
[5]; 20 mg/kg i.g. once a day for 5 days
  Cardiac infarction rate (%): 7.27 ± 1.91**^ΔΔ %
[5]; 5 mg/kg i.g.
  Pathological Score: 2.00 ± 0.53
[5]; 10 mg/kg i.g.
  Pathological Score: 1.88 ± 0.83
[5]; 20 mg/kg i.g.
  Pathological Score: 1.75 ± 0.71
[5]; plasma, 5 mg/kg i.g.
  CK (U/mL): 0.33 ± 0.15 U/mL
  LDH (U/L): 5406.70 ± 458.93*^ΔΔ U/L
  MDA: 13.23 ± 2.89 nmol/mL
  SOD (U/mL): 28.29 ± 1.24 U/mL
[5]; plasma, 10 mg/kg i.g.
  CK (U/mL): 0.27 ± 0.11 U/mL
  LDH (U/L): 3732.06 ± 573.02**^ΔΔ U/L
  MDA (nmol/mL): 5.47 ± 1.71**^ΔΔ nmol/mL
  SOD (U/mL): 23.99 ± 2.80 U/mL
[5]; plasma, 20 mg/kg i.g.
  CK (U/mL): 0.08 ± 0.047 U/mL
  LDH (U/L): 4366.03 ± 782.76**^ΔΔ U/L
  MDA (nmol/mL): 8.77 ± 2.19**^ΔΔ nmol/mL
  SOD (U/mL): 41.02 ± 2.33 U/mL
